The target in data set [1] is T1, MC1 receptor (Homo sapiens, UniProt Q01726).
T1 construct: Both MC1 and αvβ3 integrin receptors are over-expressed in M21 melanoma cells [23]; endogenous in cells; host or cells: M21 human melanoma cells
Particulars: M21 melanoma cells, cited from earlier work.

The target of data set [2] is T2, MC1 receptor (Mus musculus, UniProt Q01727).
T2 construct: host or cells: B16/F1 murine melanoma cells
In words: MC1 receptor competitive binding with 125I-(Tyr2)-NDP-MSH in B16/F1 melanoma cells. The arrangement: species or system murine. The text has this: Amino acid and resin were purchased from Advanced ChemTech Inc. (Louisville, Ky.) and Novabiochem (San Diego, Calif.). ^125I-Tyr^2-[Nle^4, DPhe^7]-α-MSH {^125I-(Tyr^2)-NDP-MSH} was obtained from PerkinElmer, Inc. (Shelton, Conn.) for MC1 receptor binding assay. ^99mTcO4^− was purchased from Cardinal Health (Albuquerque, N. Mex.) for peptide radiolabeling. All other chemicals used in this study were purchased from Thermo Fisher Scientific (Waltham, Mass.) and used without further purification. B16/F1 murine melanoma cells were obtained from American Type Culture Collection (Manassas, Va.).
The RAD-Lys-(Arg^11)CCMSH was synthesized according to our published procedure, purified by reverse phase-high performance liquid chromatography (RP-HPLC) and characterized by LC-mass spectroscopy. The IC50 value of RAD-Lys-(Arg^11)CCMSH for the MC1 receptor was determined in B16/F1 melanoma cells. Briefly, the B16/F1 cells were harvested and seeded into a 24-well cell culture plate (0.2×10^6 cells/well) and incubated at 37° C. overnight. […] The radioactivities associated with cells were measured in a Wallac 1480 automated gamma counter (PerkinElmer, NJ). The IC50 value of RAD-Lys-(Arg^11)CCMSH was calculated using the Prism software (GraphPad Software, La Jolla, Calif.).

Data set [3] concerns B16/F1 melanoma-bearing C57 mouse. Nature of the data set: SPECT/CT melanoma imaging in a B16/F1 melanoma-bearing C57 mouse. Format: in vivo. The settings on record: 2 h post-injection. Here is the method:
(§1) Approximately 6.7 MBq of ^99mTc-RAD-Lys-(Arg^11)CCMSH was injected in a B16/F1 melanoma-bearing C57 mouse for imaging and urine analysis. The mouse was euthanized at 2 h post-injection for small animal SPECT/CT (Nano-SPECT/CT®, Bioscan) imaging, as well as to collect urine for analyzing the metabolites. The 9-min CT imaging was immediately followed by the whole-body SPECT scan. The SPECT scans of 24 projections were acquired. Reconstructed SPECT and CT data were visualized and co-registered using InVivoScope (Bioscan, Washington D.C.). The collected urine sample was centrifuged at 16,000 g for 5 min before the HPLC analysis. Thereafter, aliquots of the urine were injected into the HPLC. A 20-minute gradient of 16-26% acetonitrile/20 mM HCl with a flow rate of 1 mL/min was used for urine analysis.

Data set [4] deals with B16/F1 melanoma-bearing C57 mice. Nature of the data set: Biodistribution in B16/F1 melanoma-bearing C57 mice. The format is in vivo. Here is the method: All the animal studies were conducted in compliance with Institutional Animal Care and Use Committee approval. The biodistribution of ^99mTc-RAD-Lys-(Arg^11)CCMSH was determined in B16/F1 melanoma-bearing C57 mice (Harlan, Indianapolis, Ind.). C57 mice were subcutaneously inoculated on the right flank with 1×10^6 B16/F1 cells. Tumor weights reached approximately 0.2 g at 10 days post cell inoculation. Each melanoma-bearing mouse was injected with 0.037 MBq of ^99mTc-RAD-Lys-(Arg^11)CCMSH via the tail vein. Groups of 5 mice were sacrificed at 0.5, 2, 4 and 24 h post-injection, and tumors and organs of interest were harvested, weighed and counted. Blood values were taken as 6.5% of the whole-body weight.
The specificity of tumor uptake was determined at 2 h post-injection by co-injecting ^99mTc-RAD-Lys-(Arg^11)CCMSH with 10 μg (6.1 nmol) of unlabeled NDP-MSH. L-lysine co-injection is effective in decreasing the renal uptake of radiolabeled α-MSH peptides. To determine the effect of L-lysine co-injection on the renal uptake of ^99mTc-RAD-Lys-(Arg^11)CCMSH, a group of 5 mice were injected with a mixture of 0.037 MBq of ^99mTc-RAD-Lys-(Arg^11)CCMSH and 12 mg of L-lysine. The mice were sacrificed at 2 h post-injection, and tumors and organs of interest were harvested, weighed and counted in a gamma counter.
Statistical analysis was performed using the Student's t-test for unpaired data to determine the significance of differences in tumor and kidney uptake between the groups in the biodistribution studies with/without peptide blockade or with/without L-lysine co-injection. Differences at the 95% confidence level (p<0.05) were considered significant.

In a further data set the test system is B16/F1 melanoma cells. In words: Cellular internalization and efflux in B16/F1 melanoma cells. Format: cell-based, murine. Particulars: for activity internalized: 25° C. Here is the method: RAD-Lys-(Arg^11)CCMSH was radiolabeled with ^99mTc using the method described previously. The radiolabeled peptide was purified to single species by Waters RP-HPLC (Milford, Mass.) on a Grace Vydac C-18 reverse phase analytic column (Deerfield, Ill.) using a 20 min gradient of 16-26% acetonitrile in 20 mM HCl aqueous solution at a flow rate of 1 mL/min. Cellular internalization and efflux of ^99mTc-RAD-Lys-(Arg^11)CCMSH were evaluated in B16/F1 melanoma cells. Briefly, the B16/F1 cells in 24-well cell culture plates were incubated at 25° C. for 20, 40, 60, 90 and 120 min (n=4) in the presence of approximately 200,000 cpm of HPLC purified ^99mTc-RAD-Lys-(Arg^11)CCMSH. After incubation, the reaction medium was aspirated and the cells were rinsed twice with 0.5 mL of ice-cold pH 7.4, 0.2% BSA/0.01 M PBS. Cellular internalization of ^99mTc-RAD-Lys-(Arg^11) CCMSH was assessed by washing the cells with acidic buffer [40 mM sodium acetate (pH 4.5) containing 0.9% NaCl and 0.2% BSA] to remove the membrane-bound radioactivity. The remaining internalized radioactivity was obtained by lysing the cells with 0.5 mL of 1 N NaOH for 5 min. Membrane-bound and internalized ^99mTc activities were counted in a gamma counter. Cellular efflux of ^99mTc-RAD-Lys-(Arg^11)CCMSH was determined by incubating the B16/F1 cells with ^99mTc-RAD-Lys-(Arg^11)CCMSH for 2 h at 25° C., removing non-specific-bound radioactivity with 2×0.5 mL of ice-cold pH 7.4, 0.2% BSA/0.01 M PBS rinse, and monitoring radioactivity released into cell culture medium. At time points of 20, 40, 60, 90 and 120 min, the radioactivities in medium, on cell surface and in cells were separately collected and counted in a gamma counter.

Data set [5] in a line: Urinary metabolites by HPLC in a B16/F1 melanoma-bearing C57 mouse. Format: in vivo. The settings on record: 2 h post-injection. Here is the method: as §1
Another data set deals with T3, αvβ3 integrin receptor (Homo sapiens, UniProt P05106+P06756).
T3 construct: Both MC1 and αvβ3 integrin receptors are over-expressed in M21 melanoma cells [23]; endogenous in cells; host or cells: M21 human melanoma cells
T3 sequence (P06756 31-889 limits assumed): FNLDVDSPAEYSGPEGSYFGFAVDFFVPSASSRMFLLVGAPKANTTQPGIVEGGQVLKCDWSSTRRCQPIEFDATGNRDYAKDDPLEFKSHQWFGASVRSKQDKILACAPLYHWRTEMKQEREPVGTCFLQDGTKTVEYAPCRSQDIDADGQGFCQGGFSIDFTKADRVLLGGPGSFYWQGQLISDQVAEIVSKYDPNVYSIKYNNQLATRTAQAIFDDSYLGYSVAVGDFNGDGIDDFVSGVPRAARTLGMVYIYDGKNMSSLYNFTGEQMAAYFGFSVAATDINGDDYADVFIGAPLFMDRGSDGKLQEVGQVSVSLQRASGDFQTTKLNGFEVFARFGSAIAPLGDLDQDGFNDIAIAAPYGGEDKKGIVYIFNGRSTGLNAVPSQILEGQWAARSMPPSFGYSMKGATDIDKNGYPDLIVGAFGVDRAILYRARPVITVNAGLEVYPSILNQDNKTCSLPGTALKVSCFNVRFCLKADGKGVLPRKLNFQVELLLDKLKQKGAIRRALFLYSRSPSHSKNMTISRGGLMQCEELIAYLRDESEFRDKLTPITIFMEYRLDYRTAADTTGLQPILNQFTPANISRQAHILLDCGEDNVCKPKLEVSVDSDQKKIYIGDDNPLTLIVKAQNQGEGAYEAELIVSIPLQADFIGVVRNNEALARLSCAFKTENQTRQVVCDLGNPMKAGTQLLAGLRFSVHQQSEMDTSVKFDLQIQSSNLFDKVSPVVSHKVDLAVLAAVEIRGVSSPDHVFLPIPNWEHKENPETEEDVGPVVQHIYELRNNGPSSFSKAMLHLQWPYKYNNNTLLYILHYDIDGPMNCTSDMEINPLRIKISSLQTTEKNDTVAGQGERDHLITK
T3 sequence (P06756 891-1048 limits assumed): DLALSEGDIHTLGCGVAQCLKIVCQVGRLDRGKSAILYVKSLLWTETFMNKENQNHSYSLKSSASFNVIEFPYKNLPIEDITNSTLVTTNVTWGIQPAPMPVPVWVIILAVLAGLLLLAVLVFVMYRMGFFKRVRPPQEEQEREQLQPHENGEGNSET
T3 sequence (P05106 27-788): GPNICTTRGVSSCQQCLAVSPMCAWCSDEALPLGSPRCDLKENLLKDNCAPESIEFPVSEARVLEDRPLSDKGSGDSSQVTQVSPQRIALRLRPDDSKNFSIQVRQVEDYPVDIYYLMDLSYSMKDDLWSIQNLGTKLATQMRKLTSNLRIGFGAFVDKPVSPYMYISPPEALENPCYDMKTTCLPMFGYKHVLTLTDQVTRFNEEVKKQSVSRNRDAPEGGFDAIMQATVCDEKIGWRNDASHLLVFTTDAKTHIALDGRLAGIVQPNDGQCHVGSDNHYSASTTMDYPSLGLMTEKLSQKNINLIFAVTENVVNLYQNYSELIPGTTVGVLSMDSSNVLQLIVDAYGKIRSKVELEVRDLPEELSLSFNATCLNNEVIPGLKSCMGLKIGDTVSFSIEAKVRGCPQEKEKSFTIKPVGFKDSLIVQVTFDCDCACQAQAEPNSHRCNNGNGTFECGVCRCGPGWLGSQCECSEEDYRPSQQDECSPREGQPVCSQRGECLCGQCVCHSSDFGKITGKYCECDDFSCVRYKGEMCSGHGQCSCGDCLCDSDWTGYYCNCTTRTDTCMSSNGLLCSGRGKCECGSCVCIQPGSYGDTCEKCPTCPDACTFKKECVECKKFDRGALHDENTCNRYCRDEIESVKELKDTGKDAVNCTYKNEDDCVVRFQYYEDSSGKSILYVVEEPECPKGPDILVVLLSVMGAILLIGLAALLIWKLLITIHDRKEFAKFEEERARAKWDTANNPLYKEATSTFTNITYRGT
The settings on record: M21 melanoma cells, vs RGD-Lys-(Arg11)CCMSH; cited from earlier work.

Entries after “also recorded” stand apart in the source; their conditions may differ. Positions of bridges follow the written chain, without caps; N, C: chain ends. Non-standard residues stand in square brackets, D forms with d. Residues, ends and D or L forms follow the SMILES beside them.

T1 sequence (Q01726 whole entry): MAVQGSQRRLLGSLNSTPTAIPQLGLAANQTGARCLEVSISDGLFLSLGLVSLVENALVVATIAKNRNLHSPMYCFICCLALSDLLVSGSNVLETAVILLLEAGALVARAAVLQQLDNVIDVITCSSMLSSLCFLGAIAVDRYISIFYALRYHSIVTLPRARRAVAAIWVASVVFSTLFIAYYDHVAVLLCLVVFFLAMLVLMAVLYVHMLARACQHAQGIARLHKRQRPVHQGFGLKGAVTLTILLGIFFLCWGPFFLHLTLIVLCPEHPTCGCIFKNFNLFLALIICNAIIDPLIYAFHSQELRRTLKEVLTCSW
T2 sequence (Q01727 whole entry): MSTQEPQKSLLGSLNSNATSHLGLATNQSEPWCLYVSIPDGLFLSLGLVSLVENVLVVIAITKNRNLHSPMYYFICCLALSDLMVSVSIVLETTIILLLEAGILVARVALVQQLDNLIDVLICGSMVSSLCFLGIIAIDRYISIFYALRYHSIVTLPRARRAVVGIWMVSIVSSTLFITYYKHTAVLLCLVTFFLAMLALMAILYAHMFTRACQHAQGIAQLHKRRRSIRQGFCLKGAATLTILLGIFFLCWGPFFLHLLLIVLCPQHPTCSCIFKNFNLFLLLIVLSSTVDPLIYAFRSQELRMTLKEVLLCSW

Regarding “RGD-Lys-(Arg^11)CCMSH [cyclic RGD {Arg-Gly-Asp-DTyr-Asp} motif conjugated to [Cys3,4,10, D-Phe7, Arg11]α-MSH3-13 peptide via a lysine linker, reference compound]”, the IC50 at MC1 receptor [1] (from ref. 23, read-out: MC1 receptor binding affinity) was 2 nM.

In turn, `CC(C)[C@H](NC(=O)[C@@H]1CCCN1C(=O)[C@H](CCCNC(=N)N)NC(=O)[C@H](CS)NC(=O)[C@H](Cc1c[nH]c2ccccc12)NC(=O)[C@H](CCCNC(=N)N)NC(=O)[C@@H](Cc1ccccc1)NC(=O)[C@H](Cc1c[nH]cn1)NC(=O)[C@H](CCC(=O)O)NC(=O)[C@H](CS)NC(=O)[C@H](CS)NC(=O)[C@H](CCCCN)NC(=O)[C@@H]1CC(=O)N[C@@H](CCCNC(=N)N)C(=O)N[C@@H](C)C(=O)N[C@@H](CC(=O)O)C(=O)N[C@H](Cc2ccc(O)cc2)C(=O)N1)C(N)=O` [^99mTc-RAD-Lys-(Arg^11)CCMSH, metal not drawn] (RAD[dY]DKCCEH[dF]RWCRPV-NH2; lactam N-5) yielded an IC50 on MC1 receptor [2] of 0.26 nM. Further, in data set [3], the “visualization of melanoma lesions by SPECT/CT” value is “visualized clearly; also recorded: clearly visualized”. The “tumor uptake with NDP-MSH co-injection as % of tumor uptake without” value in data set [4] (10 μg (6.1 nmol) non-radiolabeled NDP-MSH co-injection, 2 h post-injection, p<0.01) worked out at 7.8%. Also, the results for the “liver uptake as % of liver uptake of 99mTc-RGD-Lys-(Arg11)CCMSH” value in data set [4] (0.5 h post-injection), in data set [4] (2 h post-injection) and in data set [4] (24 h post-injection) were 66.2%, 61.9% and 72.3%, respectively. Moreover, the “renal uptake relative to 99mTc-RGD-Lys-(Arg11)CCMSH” value in data set [4] (0.5 h post-injection) is 1.84 times; in data set [4] (2 h post-injection), 1.39 times; in data set [4] (4 h post-injection) it was 1.42 times. The “tumor uptake relative to 99mTc-RGD-Lys-(Arg11)CCMSH” value in data set [4] (0.5 h post-injection) is listed as 1.51 times; in data set [4] (2 h post-injection), 1.34 times; in data set [4] (4 h post-injection), 1.43 times. In addition, the “effect of L-lysine co-injection on tumor uptake” value in data set [4] (2 h post-injection) is recorded as “without affecting the tumor uptake”. Besides, the “decrease of renal uptake by L-lysine co-injection” value in data set [4] (L-lysine co-injection) is reported as 46%. Besides, the “effect of peptide blockade co-injection on renal uptake” value in data set [4] (NDP-MSH co-injection) was “did not reduce the renal uptake”. In addition, the activity internalized in the data set on B16/F1 melanoma cells (20 min post incubation) came to 59.20±5.10%; in the data set on B16/F1 melanoma cells (after 2 h incubation) it was 78.24±1.13%. In addition, the “cellular internalization and retention, in words” value with B16/F1 melanoma cells (B16/F1 melanoma cells) was “rapid cellular internalization and extended cellular retention”. The “remained intact in urine” value in data set [5] is “Approximately 82%”. Moreover, in data set [5] (urine), the “transformed to a more lipophilic metabolite” value was determined as 18%.

With `CC(C)[C@H](NC(=O)[C@@H]1CCCN1C(=O)[C@H](CCCNC(=N)N)NC(=O)[C@H](CS)NC(=O)[C@H](Cc1c[nH]c2ccccc12)NC(=O)[C@H](CCCNC(=N)N)NC(=O)[C@@H](Cc1ccccc1)NC(=O)[C@H](Cc1c[nH]cn1)NC(=O)[C@H](CCC(=O)O)NC(=O)[C@H](CS)NC(=O)[C@H](CS)NC(=O)[C@H](CCCCN)NC(=O)[C@@H]1CC(=O)N[C@@H](CCCNC(=N)N)C(=O)N[C@@H](C)C(=O)N[C@@H](CC(=O)O)C(=O)N[C@H](Cc2ccc(O)cc2)C(=O)N1)C(N)=O` [RAD-Lys-(Arg^11)CCMSH] (RAD[dY]DKCCEH[dF]RWCRPV-NH2; lactam N-5 (inferred)), the “increase of MC1 receptor binding affinity by switch from RGD to RAD” value on MC1 receptor [1] (vs RGD-Lys-(Arg11)CCMSH) is 6.7 fold. The “decrease of αvβ3 integrin receptor binding affinity by switch from RGD to RAD” value on αvβ3 integrin receptor was 248 fold.

Values taken from patent US10238758B2, “Radiolabeled alpha-melanocyte stimulating hormone hybrid peptide for melanoma targeting” (STC.UNM, priority 2011, dated 2019).
